Literature values in patent US11707478B2, “Method for increasing uridine concentration in blood plasma” (N.V. Nutricia, priority 2016, dated 2023).

Columns and labels:
[1] = oral administration of uridine, Klubes 1986
CNT 1 = biological target: T1, CNT 1 (Homo sapiens, UniProt O00337); details: CNT 1 in the gut and in many other cells; read-out: apparent Km value of main transporter
T1 sequence (O00337 1-649): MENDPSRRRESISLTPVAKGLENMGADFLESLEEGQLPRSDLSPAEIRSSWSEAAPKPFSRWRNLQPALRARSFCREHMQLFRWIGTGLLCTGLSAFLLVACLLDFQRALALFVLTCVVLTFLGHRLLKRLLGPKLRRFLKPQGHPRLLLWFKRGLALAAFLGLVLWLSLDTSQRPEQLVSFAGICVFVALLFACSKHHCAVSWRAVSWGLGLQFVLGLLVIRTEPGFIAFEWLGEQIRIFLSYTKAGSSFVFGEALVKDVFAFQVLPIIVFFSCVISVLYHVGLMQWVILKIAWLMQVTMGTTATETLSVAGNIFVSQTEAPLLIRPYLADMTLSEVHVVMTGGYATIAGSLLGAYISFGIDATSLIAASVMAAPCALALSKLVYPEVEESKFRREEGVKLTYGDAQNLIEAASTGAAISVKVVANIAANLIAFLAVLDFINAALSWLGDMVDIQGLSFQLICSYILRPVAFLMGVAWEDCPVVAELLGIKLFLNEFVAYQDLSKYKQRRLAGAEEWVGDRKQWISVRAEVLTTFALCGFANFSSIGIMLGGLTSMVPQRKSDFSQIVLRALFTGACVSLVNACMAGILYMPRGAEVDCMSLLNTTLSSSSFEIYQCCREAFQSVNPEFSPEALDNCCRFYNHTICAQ

## O=c1ccn([C@@H]2O[C@H](CO)[C@@H](O)[C@H]2O)c(=O)[nH]1 [Uridine, 1-[(2R,3R,4S,5R)-3,4-dihydroxy-5-(hydroxymethyl)oxolan-2-yl]pyrimidine-2,4-dione]
[1]
  bioavailability: about 7%
CNT 1
  Km: 6 to 16 µM
